For 30 compounds, EC50 results are on record in patent US20100204265A1 (priority 2009, published 2010).

Each structure is given as a SMILES string.

The subject of the test is ET (Huh-lucubineo-ET) cell line harboring I389luc-ubi-neo/NS3-3′/ET HCV replicon. Briefly: Replicon assay (HCV replicon, luciferase readout). Format: cell-based. Particulars: Hepatitis C virus. The method in brief:
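Compounds at 10-point 2-fold dilutions (overall 0.1 nM to […], 0.5% DMSO) were applied to ET cells carrying a luciferase-neo HCV replicon, seeded a day earlier. After 48-72 hours, luciferase-based % inhibition was fitted with a Hill equation for EC50, and parallel WST-1 readings gave TC50.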

For the compound `O=C(c1nc2c(C(F)(F)F)cc(-c3cn[nH]c3)cn2c1Cl)N1CCC(Nc2ccccc2)C1` (stereo not drawn) [Compound 179, [3-Chloro-6-(1H-pyrazol-4-yl)-8-trifluoromethyl-imidazo[1,2-a]pyridin-2-yl]-(3-phenylamino-pyrrolidin-1-yl)-methanone], the EC50 worked out at 10.2 µM. Turning to `COc1ccc(NC2CCN(C(=O)c3nc4c(C(F)(F)F)cc(-c5ccoc5)cn4c3Cl)C2)cc1` (stereo not drawn) [Compound 180, (3-Chloro-6-furan-3-yl-8-trifluoromethyl-imidazo[1,2-a]pyridin-2-yl)-[3-(4-methoxy-phenylamino)-pyrrolidin-1-yl]-methanone], the concentration for a half-maximal effect (EC50) came to 12.1 µM.

Turning to `CCOC1CCN(C(=O)c2nc3c(C(F)(F)F)cc(-c4cn[nH]c4)cn3c2Cl)C1` (stereo not drawn) [Compound 181, [3-Chloro-6-(1H-pyrazol-4-yl)-8-trifluoromethyl-imidazo[1,2-a]pyridin-2-yl]-(3-ethoxy-pyrrolidin-1-yl)-methanone], it took 13.5 µM to reach a half-maximal effect (EC50). The figure for `NC(=O)COC1CCN(C(=O)c2nc3c(C(F)(F)F)cc(-c4cn[nH]c4)cn3c2Cl)CC1` [Compound 182, 2-{1-[3-Chloro-6-(1H-pyrazol-4-yl)-8-trifluoromethyl-imidazo[1,2-a]pyridine-2-carbonyl]-piperidin-4-yloxy}-acetamide] is 54.6 µM. The compound `O=C(c1nc2c(C(F)(F)F)cc(-c3ccoc3)cn2c1Cl)N1CCC(Nc2ncccn2)C1` (stereo not drawn) [Compound 183, (3-Chloro-6-furan-3-yl-8-trifluoromethyl-imidazo [1,2-a]pyridin-2-yl)-[3-(pyrimidin-2-ylamino)-pyrrolidin-1-yl]-methanone] came in with an EC50 of 55 µM. As to `O=C(Cc1cn2cc(-c3ccoc3)cc(C(F)(F)F)c2n1)Nc1nccs1` [Compound 184, 2-(6-Furan-3-yl-8-trifluoromethyl-imidazo[1,2-a]pyridin-2-yl)-N-thiazol-2-yl-acetamide], the EC50 was over 50 µM. On to `O=C(Cc1cn2cc(-c3ccoc3)cc(C(F)(F)F)c2n1)NCc1ccccc1` [Compound 185, N-Benzyl-2-(6-furan-3-yl-8-trifluoromethyl-imidazo[1,2-a]pyridin-2-yl)-acetamide], for which the EC50 was determined as 4.8 µM. As to `O=C(Cc1cn2cc(-c3ccoc3)cc(C(F)(F)F)c2n1)N1CC=C(c2nccs2)C1` [Compound 186, 2-(6-Furan-3-yl-8-trifluoromethyl-imidazo[1,2-a]pyridin-2-yl)-1-(3-thiazol-2-yl-2,5-dihydro-pyrrol-1-yl)-ethanone], the EC50 came to 5.98 µM. In the case of `O=C(Cc1cn2cc(-c3ccoc3)cc(C(F)(F)F)c2n1)N1CCC(c2cccs2)C1` (stereo not drawn) [Compound 187, 2-(6-Furan-3-yl-8-trifluoromethyl-imidazo[1,2-a]pyridin-2-yl)-1-(3-thiophen-2-yl-pyrrolidin-1-yl)-ethanone], the EC50 is 2 µM. The compound `O=C(Cc1cn2cc(-c3ccoc3)cc(C(F)(F)F)c2n1)N1CCCC1c1cccs1` (stereo not drawn) [Compound 188, 2-(6-Furan-3-yl-8-trifluoromethyl-imidazo[1,2-a]pyridin-2-yl)-1-(2-thiophen-2-yl-pyrrolidin-1-yl)-ethanone] gave an EC50 of over 50 µM. The figure for `O=C(Cc1cn2cc(-c3ccoc3)cc(C(F)(F)F)c2n1)NS(=O)(=O)c1cccs1` [Compound 189, Thiophene-2-sulfonic acid [2-(6-furan-3-yl-8-trifluoromethyl-imidazo[1,2-a]pyridin-2-yl)-acetyl]-amide] is over 50 µM; for `CS(=O)(=O)NC1CN(C(=O)Cc2cn3cc(-c4ccoc4)cc(C(F)(F)F)c3n2)C1` [Compound 190, N-{1-[2-(6-Furan-3-yl-8-trifluoromethyl-imidazo[1,2-a]pyridin-2-yl)-acetyl]-azetidin-3-yl}-methanesulfonamide] it is over 50 µM.

Compound `O=C(Cc1cn2cc(-c3ccoc3)cc(C(F)(F)F)c2n1)N1CC=C(c2nccs2)CC1` [Compound 191, 2-(6-Furan-3-yl-8-trifluoromethyl-imidazo[1,2-a]pyridin-2-yl)-1-(4-thiazol-2-yl-3,6-dihydro-2H-pyridin-1-yl)-ethanone] had an EC50 of over 50 µM. On to `O=C(Cc1cn2cc(-c3ccoc3)cc(C(F)(F)F)c2n1)NCCc1ccccc1` [Compound 192, 2-(6-Furan-3-yl-8-trifluoromethyl-imidazo[1,2-a]pyridin-2-yl)-N-phenethyl-acetamide], for which the EC50 was over 50 µM. Compound `O=C(NC1CCC(c2ccccc2)CC1)c1nc2c(C(F)(F)F)cc(-c3ccoc3)cn2c1Cl` (stereo not drawn) [Compound 193, 3-Chloro-6-furan-3-yl-8-trifluoromethyl-imidazo[1,2-a]pyridine-2-carboxylic acid (4-phenyl-cyclohexyl)-amide] had an EC50 of 2.5 µM. The figure for `O=C(c1ccccc1)C1CCN(C(=O)c2nc3c(C(F)(F)F)cc(-c4ccoc4)cn3c2Cl)CC1` [Compound 194, (4-Benzoyl-piperidin-1-yl)-(3-chloro-6-furan-3-yl-8-trifluoromethyl-imidazo[1,2-a]pyridin-2-yl)-methanone] is 0.889 µM.

As to `O=C(c1nc2c(C(F)(F)F)cc(-c3ccoc3)cn2c1Cl)N1CCC(N2CCCC2)CC1` [Compound 195, (3-Chloro-6-furan-3-yl-8-trifluoromethyl-imidazo[1,2-a]pyridin-2-yl)-(4-pyrrolidin-1-yl-piperidin-1-yl)-methanone], the EC50 was over 50 µM. The figure for `O=C(c1nc2c(C(F)(F)F)cc(-c3ccoc3)cn2c1Cl)N1CCC(n2ccnc2)CC1` [Compound 197, (3-Chloro-6-furan-3-yl-8-trifluoromethyl-imidazo[1,2-a]pyridin-2-yl)-(4-imidazol-1-yl-piperidin-1-yl)-methanone] is 3.5 µM; for `O=C(c1nc2c(C(F)(F)F)cc(-c3ccoc3)cn2c1Cl)N1CC=C(C#Cc2cccnc2)CC1` [Compound 198, (3-Chloro-6-furan-3-yl-8-trifluoromethyl-imidazo[1,2-a]pyridin-2-yl)-(4-pyridin-3-ylethynyl-3,6-dihydro-2H-pyridin-1-yl)-methanone] it is 14.6 µM. Consider `CC(C)(C)C#CC1=CCN(C(=O)c2nc3c(C(F)(F)F)cc(-c4ccoc4)cn3c2Cl)CC1` [Compound 199, (3-Chloro-6-furan-3-yl-8-trifluoromethyl-imidazo[1,2-a]pyridin-2-yl)-[4-(3,3-dimethyl-but-1-ynyl)-3,6-dihydro-2H-pyridin-1-yl]-methanone], for which the EC50 was over 50 µM. With `O=C(c1nc2c(C(F)(F)F)cc(-c3ccoc3)cn2c1Cl)N1CC=C(C#CC2CCCC2)CC1` [Compound 200, (3-Chloro-6-furan-3-yl-8-trifluoromethyl-imidazo[1,2-a]pyridin-2-yl)-(4-cyclopentylethynyl-3,6-dihydro-2H-pyridin-1-yl)-methanone], the EC50 is over 50 µM.

`O=C(c1nc2c(C(F)(F)F)cc(-c3ccoc3)cn2c1Cl)N1CC=C(c2ncccc2O)CC1` [Compound 201, (3-Chloro-6-furan-3-yl-8-trifluoromethyl-imidazo[1,2-a]pyridin-2-yl)-(3-hydroxy-3′,6′-dihydro-2′H-[2,4′]bipyridinyl-1′-yl)-methanone]: the EC50 stood at 15.3 µM. The compound `O=C(c1nc2c(C(F)(F)F)cc(-c3ccoc3)cn2c1Cl)N1CC=C(c2ncccc2Cl)CC1` [Compound 202, (3-Chloro-3′,6′-dihydro-2′H-[2,4′]bipyridinyl-1′-yl)-(3-chloro-6-furan-3-yl-8-trifluoromethyl-imidazo[1,2-a]pyridin-2-yl)-methanone] had an EC50 of 0.329 µM.

In turn, `O=C(c1nc2c(C(F)(F)F)cc(-c3ccoc3)cn2c1Cl)N1CC=C(c2cncc(F)c2)CC1` [Compound 203, (3-Chloro-6-furan-3-yl-8-trifluoromethyl-imidazo[1,2-a]pyridin-2-yl)-(5-fluoro-3′,6′-dihydro-2′H-[3,4′]bipyridinyl-1′-yl)-methanone] had a half-maximal effective concentration (EC50) of 0.975 µM. `O=C(c1nc2c(C(F)(F)F)cc(-c3ccoc3)cn2c1Cl)N1CC=C(c2cccc(F)n2)CC1` [Compound 204, (3-Chloro-6-furan-3-yl-8-trifluoromethyl-imidazo[1,2-a]pyridin-2-yl)-(6-fluoro-3′,6′-dihydro-2′H-[2,4′]bipyridinyl-1′-yl)-methanone] displayed an EC50 of 3.71 µM. The figure for `O=C(c1nc2c(C(F)(F)F)cc(-c3ccoc3)cn2c1Cl)N1CC=C(c2ncccc2C(F)(F)F)CC1` [Compound 205, (3-Chloro-6-furan-3-yl-8-trifluoromethyl-imidazo[1,2-a]pyridin-2-yl)-(3-trifluoromethyl-3′,6′-dihydro-2′H-[2,4′]bipyridinyl-1′-yl)-methanone] is 18 µM; for `Cc1ccnc(C2=CCN(C(=O)c3nc4c(C(F)(F)F)cc(-c5ccoc5)cn4c3Cl)CC2)c1F` [Compound 206, (3-Chloro-6-furan-3-yl-8-trifluoromethyl-imidazo[1,2-a]pyridin-2-yl)-(3-fluoro-4-methyl-3′,6′-dihydro-2′H-[2,4′]bipyridinyl-1′-yl)-methanone] it is 5.95 µM; for `Cc1ccc(F)c(C2=CCN(C(=O)c3nc4c(C(F)(F)F)cc(-c5ccoc5)cn4c3Cl)CC2)n1` [Compound 207, (3-Chloro-6-furan-3-yl-8-trifluoromethyl-imidazo[1,2-a]pyridin-2-yl)-(3-fluoro-6-methyl-3′,6′-dihydro-2′H-[2,4′]bipyridinyl-1′-yl)-methanone] it is 17.9 µM.

`O=C(c1nc2c(C(F)(F)F)cc(-c3ccoc3)cn2c1Cl)N1CC=C(c2ncncc2F)CC1` [Compound 208, (3-Chloro-6-furan-3-yl-8-trifluoromethyl-imidazo[1,2-a]pyridin-2-yl)-[4-(5-fluoro-pyrimidin-4-yl)-3,6-dihydro-2H-pyridin-1-yl]-methanone] gave an EC50 of 0.312 µM. In the case of `O=C(c1nc2c(C(F)(F)F)cc(-c3ccoc3)cn2c1Cl)N1CC=C(c2cc(F)ccn2)CC1` [Compound 209, (3-Chloro-6-furan-3-yl-8-trifluoromethyl-imidazo[1,2-a]pyridin-2-yl)-(4-fluoro-3′,6′-dihydro-2′H-[2,4′]bipyridinyl-1′-yl)-methanone], the EC50 was determined as 0.399 µM.
